# Values quoted from earlier work in patent publication US20220235393A1, “SURROGATE VIRUS ASSAYS AND METHODS” (priority 2019, published 2022).
# Test system: ASFV
compound,measurement,value
O=C(O)CC(O)(CC(=O)O)C(=O)O [citric acid],inactivation of virus applied to wood surfaces,completely inactivated
